Entries after “also recorded” stand apart in the source; their conditions may differ.
System: HCC1806 cells
Test: TMT MS quantitative proteomics of live cells treated with FragTAC probes (HCC1806)
Type: cell-based, Homo Sapiens
Method: Mammalian cell culture: MDA-MB-231 cells (ATCC) were maintained in DMEM supplemented with 10% (v/v) fetal bovine serum (FBS), 1% (v/v) penicillin/streptomycin, and 2 mM glutamine. HCC1806 cells (ATCC) were maintained in RPMI supplemented with 10% (v/v) fetal bovine serum (FBS), 1% (v/v) penicillin/streptomycin, and 2 mM glutamine. All cell lines were grown at 37° C. in a humidified 5% CO2 atmosphere.
Treatment of Live Cells with FragTAC Probes: Separate 6 cm (for gel-based analyses) or 10 cm (for MS-based analyses) dishes of MDA-MB-231 cells or HCC1806 cells were grown to 80-95% confluency with DMEM media and RPMI media respectively. The growth medium was aspirated, and the cells were washed with Dulbecco's phosphate buffered saline (DPBS). The cells were incubated with serum-free media containing fragment probes (200 μM) or control probes (200 μM) for 6 hours at 37° C. under a 5% CO2 atmosphere. The cultures were scraped, washed with cold DPBS, and collected into 15 mL centrifuge tubes, then transferred to 1.5 mL Eppendorf tubes. The cell suspensions were centrifuged (1,400 g, 3 min) and the pellets were stored at −80° C. until the next stage of processing.
Sample preparation for TMT MS Quantitative Proteomics: For treatment of cell lysates, cells were collected, cell pellets were resuspended in 100 μL DPBS containing 1× Halt protease inhibitor cocktail, and lysed by sonication (15 ms on, 40 ms off, 15% amplitude, 1 s total). Protein concentrations were normalized (2 mg/mL in 100 μL with cold DPBS) using the Lowry Protein Assay (Pierce). Urea (48 mg) was weighed for each sample in 2 mL LoBind Eppendorf tubes and cell lysates (100 μL=200 μg) were added (final urea concentration=8 M). Pellets were resuspended in a freshly prepared 1:1 solution (50 μL) TCEP (200 mM in DPBS) and K2CO3 (600 mM in DPBS) and incubated (30 min, 37° C.) while shaking. After reaction, a solution of freshly prepared iodoacetamide (70 μL, 400 mM in DPBS) was added and incubated for 30 min at room temperature while protected from light. After reaction, 1.8 mL of cold 3:1:2 MeOH/CHCl3/H2O solution was added to each tube, and the samples were centrifuged (10,000×g, 10 min, 4° C.), forming a disc. The supernatant was carefully removed, MeOH (600 μL) was added, samples were centrifuged as previously described and the supernatant was removed. Cell pellets were resuspended in TEAB (160 μL, 100 mM, pH 8.5) and sonicated as described previously. Endoproteinase LysC (20 μL, ½ vial, 10 μg dissolved in 220 μL of 100 mM TEAB pH 8.5) was added to each and incubated at 37° C. for 2 h with shaking. Sequencing-grade modified porcine trypsin (20 μL, 1 vial, 20 μg dissolved in 220 μL of 100 mM TEAB pH 8.5), a solution of Protease Max (2 μL, 1% (w/v) in 100 mM TEAB pH 8.5) and a solution of CaCl2) (2 μL, 100 mM) were added to the samples and incubated at 37° C. overnight (14 h) with shaking. The digest was separated by centrifugation (12,000×g, 10 min, 4° C.). Peptide concentration was determined using Pierce Quantitative Fluorometric Peptide Assay Kit (Thermo Fisher Scientific, 23290) according to manufacturer's instructions. MS-grade acetonitrile (12.5 μL) was added to each and samples were labeled with respective TMT 10 plex isotope (8 μL, 20 μg/μL) for 1 h with occasional vortexing at RT. To quench, hydroxylamine (3 μL, 5% v/v) was added to each sample, vortexed, and incubated for 15 min at RT. Formic acid (5 μL) was added to each tube to acidify and the samples were dried under vacuum centrifugation. The samples were combined by redissolving the contents of one tube in a solution of trifluoroacetic acid (TFA, 400 μL, 0.1% in water) and transferred into each sample until all samples were redissolved. The stepwise process was repeated with formic acid (Buffer A, 200 μL, 0.1% in water) for a final volume of 600 μL. […]

Structure (SMILES) | Proteins targeted (downregulated) by FragTAC probe (protein with 2 unique peptides or more, depleted 2-fold or more relative to DMSO control (P value <0.05), value = downregulated protein) | Downregulated proteins targeted by FragTAC probes (protein listed for the probe code) (TMT proteomics, targets with 2 unique peptides or more and depleted 2-fold or more relative to DMSO control (P value <0.05), cell line not given)
Cc1ncsc1-c1ccc(CNC(=O)[C@@H]2C[C@@H](O)CN2C(=O)[C@@H](NC(=O)CCOCCOCCOCCNC(=O)CCc2nc(-c3ccccc3)c(-c3ccccc3)o2)C(C)(C)C)cc1 [IF-072, (2S,4R)-1-((S)-2-(tert-butyl)-19-(4,5-diphenyloxazol-2-yl)-4,17-dioxo-7,10,13-trioxa-3,16-diazanonadecanoyl)-4-hydroxy-N-(4-(4-methylthiazol-5-yl)benzyl)pyrrolidine-2-carboxamide] | ZC3H14; also recorded: ZNF800 | –
Cc1ncsc1-c1ccc(CNC(=O)[C@@H]2C[C@@H](O)CN2C(=O)[C@@H](NC(=O)CCOCCOCCOCCC(=O)N2CCN(CC3=C(c4ccc(Cl)cc4)CC(C)(C)CC3)CC2)C(C)(C)C)cc1 [IF-060, (2S,4R)-1-((S)-2-(tert-butyl)-16-(4-((4′-chloro-5,5-dimethyl-3,4,5,6-tetrahydro-[1,1′-biphenyl]-2-yl)methyl)piperazin-1-yl)-4,16-dioxo-7,10,13-trioxa-3-azahexadecanoyl)-4-hydroxy-N-(4-(4-methylthiazol-5-yl)benzyl)pyrrolidine-2-carboxamide] | – | GHITM

Source: patent US20250276069A1, “HETEROBIFUNCTIONAL COMPOSITIONS FOR TARGETED PROTEIN DEGRADATION AND METHODS FOR THEIR USE” (THE SCRIPPS RESEARCH INSTITUTE, priority 2021, published 2025)
